Laboratory results published in patent publication US20240217917A1, “PHOTOLYTICALLY DEGRADABLE COMPOUNDS AND METHODS” (The University of Stavanger, priority 2021, published 2024).
Values after ≈ are worked out from the molar mass of the structure shown.

Key:
[1] = Photolysis of compounds 1-5, 125 W medium pressure mercury vapour lamp, conversion by 1H-NMR; assay type: physicochemical; details: for stability under irradiation at lower pH: pH values lower than 11
Procedure: Following the procedure by Wan and Muralidharan (Wan, P.; Muralidharan, S. J. Am. Chem. Soc. 1988, 110 (13), 4336-4345) aminol 1 (compound 1) was photolysed in acetonitrile and water (7:3, v:v) at the appropriate pH using a 125 W medium pressure mercury vapour lamp. Seven experiments were performed from pH 13 to pH 1 with a concentration of around 0.68 mM, and each reaction was irradiated for. 2 hours Following liquid-liquid extraction with DCM, all reaction mixtures were analysed with ^1H-NMR spectroscopy. Initially it was expected that a mechanism similar to the nitrophenethyl alcohols (Scheme 3) would occur and the expected products would therefore be N-methyl-p-nitroaniline, phenylacetaldehyde, 2-(p-nitroaniline)acetaldehyde, and toluene
Because of this, it seems likely that following excitation to the singlet state and intersystem crossing (ISC) to the triplet state, a proton is abstracted and initiates decomposition. Two products were identified from the NMR data; p-nitroaniline and benzaldehyde. This means that there are two carbon atoms in the starting material unaccounted for (Scheme 13). A reasonable hypothesis is that they remain in the aqueous phase during extraction as formaldehyde or glyoxal.

UV-vis spectra = assay type: physicochemical; details: ethanol as solvent
Procedure: As illustrated in the UV-vis spectra, where the nitro group is positioned greatly influences the λmax. With nitro substitution on the aniline these values are around 380 and 400 nm, whereas for the two other compounds a hypsochromic shift is observed all the way down to 248 nm.
UV-vis spectra were obtained on an Agilent 8453 single-beam UV-vis spectrophotometer with a deuterium-discharge lamp for the UV range and a tungsten lamp for the visible wavelength range. Samples were analysed in an Agilent open-top UV quartz cell (10 mm, 3.0 mL) with ethanol as solvent. Wavelengths are reported in nm and molar attenuation coefficients in M^−1cm^−1.

[2] = Photolysis of compounds 1-5, 125 W medium pressure mercury vapour lamp, conversion by 1H-NMR; assay type: physicochemical; details: same conditions
[3] = Solubility observed as precipitation in the MIC test; assay type: physicochemical; details: higher concentrations in the S. agalactiae MIC test
Procedure: (§1) With compounds 6-9 and the crude degradation mixtures in hand, the minimum inhibitory concentration (MIC) was screened against a number of gram-positive and gram-negative bacteria, including E. faecalis, E. coli, P. aeruginosa, S. aureus, S. agalactiae, and S. epidermidis. To determine the activity, optical density (OD) at 600 nm was measured to estimate the concentration of bacteria at concentrations from 1.6 -100 μM. Values below 0.05 are counted as active and indicates inhibition of growth, illustrated by plotting OD against the concentration for compounds 6-9, (FIG. 9). […] Black stapled lines at 0.05 for MIC and 30% for biofilm formation indicate activity threshold values. […] No activity was observed against the gram-negative bacteria (Table 3).

S. Aureus = assay: Minimum inhibitory concentration (MIC) screen, OD 600 nm; assay type: cell-based; design: key to Minimum inhibitory concentration, S. Aureus: I = inactive, i.e. below the activity threshold; details: screened at 100-1.6 μM; for MIC: Staphylococcus aureus
Procedure: as §1

S. Epidermidis [4] = assay: as above; assay type: cell-based; design: key to Minimum inhibitory concentration, S. Epidermidis: I = inactive, i.e. below the activity threshold; details: screened at 100-1.6 μM
Procedure: as §1

S. Agalactiae = assay: as above; assay type: cell-based; design: key to Minimum inhibitory concentration, S. Agalactiae: I = inactive, i.e. below the activity threshold; details: screened at 100-1.6 μM; for MIC: Streptococcus agalactiae
Procedure: as §1

S. Epidermidis [5] = assay: Biofilm inhibition; assay type: cell-based; details: threshold 30% biofilm formation
Procedure: as §1

[6] = Photolysis of compounds 6-9, 6 W low-pressure mercury vapor lamp, conversion by 1H-NMR; assay type: physicochemical; details: pH 13; acetonitrile/NaOH solution 30/70; 254 nm low-pressure lamp; 24 hours
Procedure: Aminol 6-9 (compounds 6-9) were dissolved in acetonitrile and diluted with a sodium hydroxide solution at pH 13 (30/70, V/V). Since all the compounds have strong absorption bands around 250 nm (FIG. 8), a 6 W low-pressure mercury vapor lamp was chosen as the irradiation source, since it emits mainly at 254 nm. All reactions were carried out in a 75 mL gas inlet flask (˜0.7 mM) under a constant stream of nitrogen with a quartz well cold finger for 24 hours.
Following aqueous workup, the reaction mixtures were analysed with ^1H-NMR spectroscopy. […] The photodegradation reaction for compound 6 can be seen in Scheme 21. Additionally, the two doublets at 7.47 and 8.13 ppm (Hc and Ha) have disappeared into a complicated multiplet, and the aliphatic protons around 3 ppm are no longer visible (FIG. 6).

[7] = pH 11, 2 hours irradiation, acetonitrile and water (7:3), medium pressure mercury lamp
[8] = pH 13, 2 hours irradiation, acetonitrile and water (7:3), medium pressure mercury lamp

| Structure (SMILES) | conversion after photolysis [1, 7] [%] | conversion after photolysis [1, 8] [%] | E (UV-vis spectra) [M⁻¹ cm⁻¹] | λmax (UV-vis spectra) [nm] | Minimum inhibitory concentration, S. Epidermidis (S. Epidermidis [4]) | MIC (S. Agalactiae) [µM] | further results |
| --- | --- | --- | --- | --- | --- | --- | --- |
| O=[N+]([O-])c1cccc(NCC(O)Cc2ccccc2)c1 (centres unmarked) [Compound 2] | 17 | 17 | 1331.3 | 400 |  |  | stability under irradiation at lower pH [1]: remained stable |
| O=[N+]([O-])c1ccc(NCC(O)Cc2ccccc2)cc1 (centres unmarked) [Compound 1] | 100 | 100 | 1740.0 | 384 |  |  | conversion after photolysis ([1]; pH 5, 2 hours irradiation): stops completely; time to full decomposition ([1]; pH 7, extrapolated from conversion after 2 hours): ca. 6 hours; conversion in reference experiments in the dark [2]: no conversion |
| O=C(NCC(O)CNc1ccc([N+](=O)[O-])cc1)C(Cl)Cl (centres unmarked) [Compound 5] | 68 | 100 | 17263.9 | 382 |  |  | conversion after photolysis ([1]; pH 11, 2 hours irradiation, acetonitrile and water (7:3), medium pressure mercury lamp, listed as compound resembling chloramphenicol): 60%; conversion after photolysis ([1]; pH 13): Full conversion; stability under irradiation at lower pH [1]: remained stable |
| O=[N+]([O-])c1ccc(F)c(CC(O)CNc2cc(Cl)c(OC(F)(F)C(F)C(F)(F)F)cc2Cl)c1F (centres unmarked) [Compound 8, 1-((2,5-Dichloro-4-(1,1,2,3,3,3-hexafluoropropoxy)phenyl)amino)-3-(2,6-difluoro-3-nitrophenyl)propan-2-ol] |  |  |  |  | I | 6.3 (≈ 3.42 µg/mL) | solubility [3]: limited solubility; Minimum inhibitory concentration, S. Aureus (S. Aureus): I; biofilm inhibition for S. epidermidis (S. Epidermidis [5]): 25 µM; conversion after photolysis [6]: 56%; photodegradation [6]: complete degradation was not achieved |
| O=[N+]([O-])c1ccc(F)c(CC(O)CNc2cc(Cl)c(F)c(Cl)c2F)c1F (centres unmarked) [Compound 7, 1-((3,5-Dichloro-2,4-difluorophenyl)amino)-3-(2,6-difluoro-3-nitrophenyl)propan-2-ol] |  |  |  |  | I |  | MIC (S. Aureus): 50 µM (≈ 20.7 µg/mL); Minimum inhibitory concentration, S. Agalactiae (S. Agalactiae): I |
| O=[N+]([O-])c1ccc(F)c(CC(O)CNc2cc(Cl)cc(Cl)c2F)c1F (centres unmarked) [Compound 9, 1-((3,5-Dichloro-2-fluorophenyl)amino)-3-(2,6-difluoro-3-nitrophenyl)propan-2-ol] |  |  |  |  |  | 50 (≈ 19.8 µg/mL) | MIC (S. Aureus): 50 µM (≈ 19.8 µg/mL); MIC (S. Epidermidis [4]; Staphylococcus epidermidis): 50 µM (≈ 19.8 µg/mL) |
| O=[N+]([O-])c1cccc(CC(O)CNc2ccccc2)c1 (centres unmarked) [Compound 4] |  | 56 | 17018.7 | 248 |  |  |  |
| O=[N+]([O-])c1ccc(CC(O)CNc2ccccc2)cc1 (centres unmarked) [Compound 3] |  | 40 | 15066.6 | 248 |  |  |  |
| O=[N+]([O-])c1ccc(CC(O)CNc2cc(Cl)c(OC(F)(F)C(F)C(F)(F)F)cc2Cl)cc1 (centres unmarked) [Compound 6] |  |  |  |  | I | 6.3 (≈ 3.2 µg/mL) | solubility [3]: limited solubility; Minimum inhibitory concentration, S. Aureus (S. Aureus): I; biofilm inhibition for S. epidermidis (S. Epidermidis [5]): 12.5 µM; photodegradation [6]: complete conversion |
